Test results: the NIST ThermoML archive (doi:10.1021/je400423u)
± gives the expanded uncertainty stated by the source.

What was measured:
[1] = xn = mol fraction of the nth substance listed; details: 101 kPa, Liquid, x1 = 1; for viscosity: Falling or rolling sphere viscometry; for mass density: Vibrating tube method
[2] = 101 kPa, Liquid; for viscosity: Falling or rolling sphere viscometry; for mass density: Vibrating tube method

viscosity ([2]; 308.15 K) [mPa·s]	mass density ([2]; 308.15 K) [kg/m3]	viscosity ([2]; 313.15 K) [mPa·s]	mass density ([2]; 313.15 K) [kg/m3]	viscosity ([2]; 318.15 K) [mPa·s]	mass density ([2]; 318.15 K) [kg/m3]	viscosity ([2]; 323.15 K) [mPa·s]	mass density ([2]; 323.15 K) [kg/m3]	mass density ([2]; 328.15 K) [kg/m3]	mass density ([2]; 333.15 K) [kg/m3]	mass density ([2]; 338.15 K) [kg/m3]	mass density ([2]; 343.15 K) [kg/m3]	other results	SMILES
–	–	–	–	–	–	–	–	–	–	–	–	viscosity ([1]; 308.15 K): 2.128 ± 0.017 mPa·s; mass density ([1]; 308.15 K): 794.05 ± 0.14 kg/m3; viscosity ([1]; 313.15 K): 1.822 ± 0.015 mPa·s; mass density ([1]; 313.15 K): 789.65 ± 0.14 kg/m3; viscosity ([1]; 318.15 K): 1.533 ± 0.013 mPa·s; mass density ([1]; 318.15 K): 785.15 ± 0.14 kg/m3; viscosity ([1]; 323.15 K): 1.315 ± 0.011 mPa·s; mass density ([1]; 323.15 K): 780.55 ± 0.15 kg/m3; mass density ([1]; 328.15 K): 775.83 ± 0.15 kg/m3; viscosity ([1]; 333.15 K): 1.025 ± 0.0087 mPa·s; mass density ([1]; 333.15 K): 770.99 ± 0.15 kg/m3; mass density ([1]; 338.15 K): 766.03 ± 0.15 kg/m3; mass density ([1]; 343.15 K): 760.96 ± 0.15 kg/m3	CCC(C)O (stereo not given) [butan-2-ol] + CC(C)CO
2.589 ± 0.02	770.36 ± 0.13	2.089 ± 0.016	765.07 ± 0.13	1.69 ± 0.013	759.67 ± 0.13	1.409 ± 0.011	754.19 ± 0.13	748.62 ± 0.13	742.95 ± 0.14	737.19 ± 0.14	731.31 ± 0.14	–	CC(C)(C)O [2-methylpropan-2-ol]
2.382 ± 0.019	790.12 ± 0.12	2.116 ± 0.017	786.12 ± 0.12	1.861 ± 0.015	782.06 ± 0.12	1.602 ± 0.013	777.93 ± 0.12	773.73 ± 0.12	769.44 ± 0.13	765.07 ± 0.13	760.61 ± 0.13	–	CC(C)CO [2-methyl-1-propanol]
2.128 ± 0.017	794.05 ± 0.14	1.822 ± 0.015	789.65 ± 0.14	1.533 ± 0.013	785.15 ± 0.14	1.315 ± 0.011	780.55 ± 0.15	775.83 ± 0.15	770.99 ± 0.15	766.03 ± 0.15	760.96 ± 0.15	viscosity ([2]; 333.15 K): 1.025 ± 0.0087 mPa·s	CCC(C)O (stereo not given) [butan-2-ol]
